Laboratory results taken from the NIST ThermoML archive (doi:10.1016/j.jct.2018.08.021).
Numbers after ± are expanded uncertainties.

Assay: osmotic coefficient (dimensionless); mn = molality of the nth substance listed, in mol/kg
Conditions: 303.15 K, 101.3 kPa, Liquid, Vapor-pressure osmometry (Knauer K-7000)

NC(=O)c1ccc[n+]([C@@H]2O[C@H](COP(=O)([O-])OP(=O)(O)OC[C@H]3O[C@@H](n4cnc5c(N)ncnc54)[C@H](O)[C@@H]3O)[C@@H](O)[C@H]2O)c1 [β-nicotinamide adenine dinucleotide] + O
osmotic coefficient (m1 = 0.0476): 0.809 ± 0.064
osmotic coefficient (m1 = 0.0572): 0.804 ± 0.065
osmotic coefficient (m1 = 0.0765): 0.771 ± 0.066
osmotic coefficient (m1 = 0.0951): 0.73 ± 0.067
